From patent US20230183292A1, “IMMUNOMODULATORS” (priority 2020, published 2023)
Starred links: 1 amine or outer side, 2 acyl side, 3 side chain; linkers in the order of their positions; H or OH if unused. Positions of bridges follow the written chain, without caps; N, C: chain ends. Non-standard residues stand in square brackets, D forms with d. Residues, ends and D or L forms follow the SMILES beside them. Groups on a side chain read outwards from the residue. *: point of attachment. X2 = C[C@H](CCC(=O)NCCCN(CCCCNC(=O)CC[C@@H](C)[C@@H]1CC[C@H]2[C@@H]3[C@H](O)C[C@@H]4C[C@H](O)CC[C@]4(C)[C@H]3C[C@H](O)[C@@]21C)*)[C@H]1CC[C@H]2[C@@H]3[C@H](O)C[C@@H]4C[C@H](O)CC[C@]4(C)[C@H]3C[C@H](O)[C@]12C; X26 = C[C@H](CCC(=O)O)[C@H]1CC[C@H]2[C@@H]3C(=O)C[C@@H]4CC(NCC[C@H](N[*:1])C(=O)[*:2])CC[C@]4(C)[C@H]3CC[C@]12C; X25 = C[C@H](CCC(=O)O)[C@H]1CC[C@H]2[C@@H]3C(=O)C[C@@H]4CC(NC[C@H](N[*:1])C(=O)[*:2])CC[C@]4(C)[C@H]3CC[C@]12C; Cholyl = C[C@H](CCC(=O)*)[C@H]1CC[C@H]2[C@@H]3[C@H](O)C[C@@H]4C[C@H](O)CC[C@]4(C)[C@H]3C[C@H](O)[C@]12C; Dehydrocholoyl = C[C@H](CCC(=O)*)[C@H]1CC[C@H]2[C@@H]3C(=O)C[C@@H]4CC(=O)CC[C@]4(C)[C@H]3CC(=O)[C@]12C; Trp(1-CH2CO) = O=C([C@H](Cc1cn(CC(=O)[*:3])c2ccccc12)N[*:1])[*:2]; X35 = O=C(Cn1cc(C[C@H](N[*:1])C(=O)[*:2])c2ccccc21)NCC(F)(F)F; X30 = CCCCCCOC(=O)Cn1cc(C[C@H](N[*:1])C(=O)[*:2])c2ccccc21; Trp(1-CH2COOH) = N[C@@H](Cc1cn(CC(=O)O)c2ccccc12)C(=O)O; X1 = NCCNC(=O)Cn1cc(C[C@H](N[*:1])C(=O)[*:2])c2ccccc21; Pro(4R-Me) = C[C@H]1CN[C@H](C(=O)O)C1; Hyp = O=C(O)[C@@H]1C[C@@H](O)CN1; NMeNle = CCCC[C@H](NC)C(=O)O; NMeA = CN[C@@H](C)C(=O)O; Dab = NCC[C@H](N)C(=O)O; Dap = NC[C@H](N)C(=O)O

target: T1, PD-1/PD-L1 (Homo sapiens, UniProt Q9NZQ7); experiment: PD-1/PD-L1 Homogenous Time-Resolved Fluorescence (HTRF) binding assay; details: PD-L1-His 10 nM, PD-1-Ig 20 nM; read-out: HTRF IC50
T1 construct: TVMV protease site (C); made in house; host or cells: HEK293T cells
T1 sequence (Q9NZQ7 18-239): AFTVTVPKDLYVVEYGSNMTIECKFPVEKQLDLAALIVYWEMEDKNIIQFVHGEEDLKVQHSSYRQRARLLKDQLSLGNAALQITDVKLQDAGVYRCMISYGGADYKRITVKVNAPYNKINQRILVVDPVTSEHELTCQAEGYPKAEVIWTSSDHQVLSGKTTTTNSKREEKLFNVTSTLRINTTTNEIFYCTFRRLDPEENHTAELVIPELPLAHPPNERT
Source text: The ability of the compounds of formula (I) to bind to PD-L1 was investigated using a PD-1/PD-L1 Homogenous Time-Resolved Fluorescence (HTRF) binding assay.
The interaction of PD-1 and PD-L1 can be assessed using soluble, purified preparations of the extracellular domains of the two proteins. The PD-1 and PD-L1 protein extracellular domains were expressed as fusion proteins with detection tags, for PD-1, the tag was the Fc portion of Immunoglobulin (PD-1-Ig) and for PD-L1 it was the 6 histidine motif (PD-L1-His). All binding studies were performed in an HTRF assay buffer consisting of dPBS supplemented with 0.1% […] bovine serum albumin and 0.05% (v/v) Tween-20. For the h/PD-L1-His binding assay, inhibitors were pre-incubated with PD-L1-His (10 nM final) for 15 m in 4 μl of assay buffer, followed by addition of PD-1-Ig (20 nM final) in 1 μl of assay buffer and further incubation for 15 m. HTRF detection was achieved using europium crypate-labeled anti-Ig (1 nM final) and allophycocyanin (APC) labeled anti-His (20 nM final). Antibodies were diluted in HTRF detection buffer and 5 μl was dispensed on top of the binding reaction. The reaction mixture was allowed to equilibrate for 30 minutes and the resulting signal (665 nm/620 nm ratio) was obtained using an EnVision fluorometer. Additional binding assays were established between the human proteins PD-1-Ig/PD-L2-His (20 & 5 nM, respectively) and CD80-His/PD-L1-Ig (100 & 10 nM, respectively).
Recombinant Proteins: Human PD-1 (25-167) with a C-terminal human Fc domain of immunoglobulin G (Ig) epitope tag [hPD-1 (25-167)-3S-IG] and human PD-L1 (18-239) with a C-terminal His epitope tag [hPD-L1(18-239)-TVMV-His] were expressed in HEK293T cells and purified sequentially by ProteinA affinity chromatography and size exclusion chromatography. Human PD-L2-His and CD80-His was obtained through commercial sources.
Table 1 lists the IC50 values for representative examples of this disclosure measured in the PD-1/PD-L1 Homogenous Time-Resolved Fluorescence (HTRF) binding assay.

Question: Which IC50 does the source give for `CCCCCCOC(=O)Cn1cc(C[C@@H]2NC(=O)[C@H](CCNC(=O)CC[C@@H](C)[C@H]3CC[C@H]4[C@@H]5C(=O)C[C@@H]6CC(=O)CC[C@]6(C)[C@H]5CC(=O)[C@]34C)NC(=O)[C@H](Cc3c[nH]c4ccccc34)NC(=O)[C@@H]3C[C@@H](O)CN3C(=O)[C@H](CC(C)C)NC(=O)[C@H](CNC(=O)CC[C@@H](C)[C@H]3CC[C@H]4[C@@H]5C(=O)C[C@@H]6CC(=O)CC[C@]6(C)[C@H]5CC(=O)[C@]34C)NC[C@@H]3CCCN3C(=O)[C@H](CC(N)=O)NC(=O)[C@H](C)N(C)C(=O)[C@H](Cc3ccc(O)cc3)NC(=O)CSC[C@@H](C(=O)NCC(N)=O)NC(=O)[C@H](CC(C)C)NC(=O)[C@H](CCCC)N(C)C(=O)[C@H](CCCC)N(C)C2=O)c2ccccc21` [Example 2014] here?
Answer: 4600 nM

Question: With `CCCC[C@H]1C(=O)N(C)[C@@H](CCCC)C(=O)N[C@@H](CC(C)C)C(=O)N[C@H](C(=O)NCC(N)=O)CSCC(=O)N[C@@H](Cc2ccc(O)cc2)C(=O)N(C)[C@@H](C)C(=O)N[C@@H](CC(N)=O)C(=O)N2CCC[C@H]2C(=O)N[C@@H](CNC(=O)CC[C@@H](C)[C@H]2CC[C@H]3[C@@H]4C(=O)C[C@@H]5CC(=O)CC[C@]5(C)[C@H]4CC(=O)[C@]23C)C(=O)N[C@@H](CC(C)C)C(=O)N2C[C@H](O)C[C@H]2C(=O)N[C@@H](Cc2c[nH]c3ccccc23)C(=O)N[C@@H](CCNC(=O)CC[C@@H](C)[C@H]2CC[C@H]3[C@@H]4C(=O)C[C@@H]5CC(=O)CC[C@]5(C)[C@H]4CC(=O)[C@]23C)C(=O)N[C@@H](Cc2cn(CC(=O)NCCN)c3ccccc23)C(=O)N1C` [Example 2019] ({CH2CO}-Y[NMeA]NP[Dap](Dehydrocholoyl)L[Hyp]W[Dab](Dehydrocholoyl)[X1][NMeNle][NMeNle]LCG-NH2; thioether N-14) as the molecule, how does the IC50 read?
Answer: 19 nM

Question: For `CCCC[C@H]1C(=O)N(C)[C@@H](CCCC)C(=O)N[C@@H](CC(C)C)C(=O)N[C@H](C(=O)NCC(N)=O)CSCC(=O)N[C@@H](Cc2ccc(O)cc2)C(=O)N(C)[C@@H](C)C(=O)N[C@@H](CC(N)=O)C(=O)N2CCC[C@H]2C(=O)N[C@@H](CNC(=O)CC[C@@H](C)[C@H]2CC[C@H]3[C@@H]4[C@H](O)C[C@@H]5C[C@H](O)CC[C@]5(C)[C@H]4C[C@H](O)[C@]23C)C(=O)N[C@@H](CC(C)C)C(=O)N2C[C@H](O)C[C@H]2C(=O)N[C@@H](Cc2c[nH]c3ccccc23)C(=O)N[C@@H](CCNC(=O)CC[C@@H](C)[C@H]2CC[C@H]3[C@@H]4[C@H](O)C[C@@H]5C[C@H](O)CC[C@]5(C)[C@H]4C[C@H](O)[C@]23C)C(=O)N[C@@H](Cc2cn(CC(=O)N(CCCCNC(=O)CC[C@@H](C)[C@@H]3CC[C@H]4[C@@H]5[C@H](O)C[C@@H]6C[C@H](O)CC[C@]6(C)[C@H]5C[C@H](O)[C@@]43C)CCCNC(=O)CC[C@@H](C)[C@H]3CC[C@H]4[C@@H]5[C@H](O)C[C@@H]6C[C@H](O)CC[C@]6(C)[C@H]5C[C@H](O)[C@]34C)c3ccccc23)C(=O)N1C` [Example 7001] ({CH2CO}-Y[NMeA]NP[Dap](Cholyl)L[Hyp]W[Dab](Cholyl)[Trp(1-CH2CO)](X2)[NMeNle][NMeNle]LCG-NH2; thioether N-14), which IC50 is on record?
Answer: 2 nM

Question: For `CCCC[C@H]1C(=O)N(C)[C@@H](CCCC)C(=O)N[C@@H](CC(C)C)C(=O)N[C@H](C(=O)NCC(N)=O)CSCC(=O)N[C@@H](Cc2ccc(O)cc2)C(=O)N(C)[C@@H](C)C(=O)N[C@@H](CC(N)=O)C(=O)N2CCC[C@H]2CN[C@@H](CNC(=O)CC[C@@H](C)[C@H]2CC[C@H]3[C@@H]4C(=O)C[C@@H]5CC(=O)CC[C@]5(C)[C@H]4CC(=O)[C@]23C)C(=O)N[C@@H](CC(C)C)C(=O)N2C[C@H](O)C[C@H]2C(=O)N[C@@H](Cc2c[nH]c3ccccc23)C(=O)N[C@@H](CCNC(=O)CC[C@@H](C)[C@H]2CC[C@H]3[C@@H]4C(=O)C[C@@H]5CC(=O)CC[C@]5(C)[C@H]4CC(=O)[C@]23C)C(=O)N[C@@H](Cc2cn(CC(=O)OC3CC3)c3ccccc23)C(=O)N1C` [Example 2011], which IC50 is on record?
Answer: 35 nM

Question: With `CCCC[C@H]1C(=O)N(C)[C@@H](CCCC)C(=O)N[C@@H](CC(C)C)C(=O)N[C@H](C(=O)NCC(N)=O)CSCC(=O)N[C@@H](Cc2ccc(O)cc2)C(=O)N(C)[C@@H](C)C(=O)N[C@@H](CC(N)=O)C(=O)N2CCC[C@H]2C(=O)N[C@@H](CNC2CC[C@@]3(C)[C@H](CC(=O)[C@@H]4[C@@H]3CC[C@]3(C)[C@@H]([C@H](C)CCC(=O)O)CC[C@@H]43)C2)C(=O)N[C@@H](CC(C)C)C(=O)N2C[C@H](O)C[C@H]2C(=O)N[C@@H](Cc2c[nH]c3ccccc23)C(=O)N[C@@H](CCNC2CC[C@@]3(C)[C@H](CC(=O)[C@@H]4[C@@H]3CC[C@]3(C)[C@@H]([C@H](C)CCC(=O)O)CC[C@@H]43)C2)C(=O)N[C@@H](Cc2cn(CC(=O)O)c3ccccc23)C(=O)N1C` (some centres unmarked) [Example 3006] ({CH2CO}-Y[NMeA]NP[X25]L[Hyp]W[X26][Trp(1-CH2COOH)][NMeNle][NMeNle]LCG-NH2; thioether N-14) as the molecule, how does the IC50 read?
Answer: 11 nM

Question: `CCCC[C@H]1C(=O)N(C)[C@@H](CCCC)C(=O)N[C@@H](CC(C)C)C(=O)N[C@H](C(=O)NCC(N)=O)CSCC(=O)N[C@@H](Cc2ccc(O)cc2)C(=O)N(C)[C@@H](C)C(=O)N[C@@H](CC(N)=O)C(=O)N2CCC[C@H]2C(=O)N[C@@H](CNC(=O)CNC(=O)CC[C@@H](C)[C@H]2CC[C@H]3[C@@H]4[C@H](O)C[C@@H]5C[C@H](O)CC[C@]5(C)[C@H]4C[C@H](O)[C@]23C)C(=O)N[C@@H](CC(C)C)C(=O)N2C[C@H](C)C[C@H]2C(=O)N[C@@H](Cc2c[nH]c3ccccc23)C(=O)N[C@@H](CCNC(=O)CNC(=O)CC[C@@H](C)[C@H]2CC[C@H]3[C@@H]4[C@H](O)C[C@@H]5C[C@H](O)CC[C@]5(C)[C@H]4C[C@H](O)[C@]23C)C(=O)N[C@@H](Cc2cn(CC(=O)NCC(F)(F)F)c3ccccc23)C(=O)N1C` [Example 2030] ({CH2CO}-Y[NMeA]NP[Dap]([Gly-Cholyl])L[Pro(4R-Me)]W[Dab]([Gly-Cholyl])[X35][NMeNle][NMeNle]LCG-NH2; thioether N-14) was tested. Which IC50 did it give?
Answer: 5600 nM

Question: With `CCCCCCOC(=O)Cn1cc(C[C@@H]2NC(=O)[C@H](CCNC(=O)CNC(=O)CC[C@@H](C)[C@H]3CC[C@H]4[C@@H]5[C@H](O)C[C@@H]6C[C@H](O)CC[C@]6(C)[C@H]5C[C@H](O)[C@]34C)NC(=O)[C@H](Cc3c[nH]c4ccccc34)NC(=O)[C@@H]3C[C@@H](C)CN3C(=O)[C@H](CC(C)C)NC(=O)[C@H](CNC(=O)CNC(=O)CC[C@@H](C)[C@H]3CC[C@H]4[C@@H]5[C@H](O)C[C@@H]6C[C@H](O)CC[C@]6(C)[C@H]5C[C@H](O)[C@]34C)NC(=O)[C@@H]3CCCN3C(=O)[C@H](CC(N)=O)NC(=O)[C@H](C)N(C)C(=O)[C@H](Cc3ccc(O)cc3)NC(=O)CSC[C@@H](C(=O)NCC(N)=O)NC(=O)[C@H](CC(C)C)NC(=O)[C@H](CCCC)N(C)C(=O)[C@H](CCCC)N(C)C2=O)c2ccccc21` [Example 2034] ({CH2CO}-Y[NMeA]NP[Dap]([Gly-Cholyl])L[Pro(4R-Me)]W[Dab]([Gly-Cholyl])[X30][NMeNle][NMeNle]LCG-NH2; thioether N-14) as the molecule, how does the IC50 read?
Answer: 5200 nM

Question: For `CCCCOC(=O)Cn1cc(C[C@@H]2NC(=O)[C@H](CCNC(=O)CC[C@@H](C)[C@H]3CC[C@H]4[C@@H]5C(=O)C[C@@H]6CC(=O)CC[C@]6(C)[C@H]5CC(=O)[C@]34C)NC(=O)[C@H](Cc3c[nH]c4ccccc34)NC(=O)[C@@H]3C[C@@H](O)CN3C(=O)[C@H](CC(C)C)NC(=O)[C@H](CNC(=O)CC[C@@H](C)[C@H]3CC[C@H]4[C@@H]5C(=O)C[C@@H]6CC(=O)CC[C@]6(C)[C@H]5CC(=O)[C@]34C)NC[C@@H]3CCCN3C(=O)[C@H](CC(N)=O)NC(=O)[C@H](C)N(C)C(=O)[C@H](Cc3ccc(O)cc3)NC(=O)CSC[C@@H](C(=O)NCC(N)=O)NC(=O)[C@H](CC(C)C)NC(=O)[C@H](CCCC)N(C)C(=O)[C@H](CCCC)N(C)C2=O)c2ccccc21` [Example 2013], which IC50 is on record?
Answer: 41 nM
